Experiments:
[1] = test system: rice; test: Test B flood test rice; type: in vivo, Oryza sativa
Procedure, shortened: (§1)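 Each value is a visual injury score relative to controls, with 10 meaning complete control and 0 no effect. Evaluation took place twelve to sixteen days after the 2-leaf-stage plants were treated and kept in the greenhouse.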

[2] = test system: surinam grass; test: Test B pre/postemergence surinam grass; type: in vivo, Brachiaria decumbens
Procedure, shortened: (§2)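 Test chemicals in a non-phytotoxic solvent mixture with surfactant were sprayed preemergence onto planted seeds and postemergence onto plants 2 to 18 cm tall (1- to 4-leaf stage). After twelve to sixteen days in a greenhouse, injury was visually rated against untreated controls from 0 (no effect) to 10 (complete control).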

[3] = test system: wild oat; test: Test B pre/postemergence wild oat; type: in vivo, Avena fatua
Procedure, shortened: as §2

[4] = test system: morningglory; test: Test B pre/postemergence morningglory; type: in vivo, Ipomoea hederacea
Procedure, shortened: as §2

[5] = test system: purple nutsedge; test: Test B pre/postemergence purple nutsedge; type: in vivo, Cyperus rotundus
Procedure, shortened: as §2

[6] = test system: crabgrass; test: Test B pre/postemergence crabgrass; type: in vivo, Digitaria sanguinalis
Procedure, shortened: as §2

[7] = test system: giant foxtail; test: Test B pre/postemergence giant foxtail; type: in vivo, Setaria faberii
Procedure, shortened: as §2

[8] = test system: cocklebur; test: Test B pre/postemergence cocklebur; type: in vivo, Xanthium strumarium
Procedure, shortened: as §2

[9] = test system: corn; test: Test B pre/postemergence corn; type: in vivo, Zea mays
Procedure, shortened: as §2

[10] = test system: rape; test: Test B pre/postemergence rape; type: in vivo, Brassica napus
Procedure, shortened: as §2

[11] = test system: duck salad; test: Test B flood test duck salad; type: in vivo, Heteranthera limosa
Procedure, shortened: as §1

[12] = test system: soybean; test: Test B pre/postemergence soybean; type: in vivo, Glycine max
Procedure, shortened: as §2

[13] = test system: bamyardgrass; test: Test B flood test barnyardgrass; type: in vivo, Echinochloa crus-galli
Procedure, shortened: as §1

[14] = test system: sugar beet; test: Test B pre/postemergence sugar beet; type: in vivo, Beta vulgaris
Procedure, shortened: as §2

[15] = test system: pigweed; test: Test B pre/postemergence pigweed; type: in vivo, Amaranthus retroflexus
Procedure, shortened: as §2

[16] = test system: smallflower flatsedge; test: Test B flood test smallflower flatsedge; type: in vivo, Cyperus difformis
Procedure, shortened: as §1

[17] = Postemergence (flood test species), Rate 125 g/ha, scale of 0 to 10 where 0 is no effect and 10 is complete control
[18] = Postemergence, Rate 1000 g/ha, scale 0 to 10 (0 no effect, 10 complete control)
[19] = Rate 250 g/ha, Postemergence (flood test), scale 0 to 10, 0 is no effect, 10 is complete control
[20] = Rate 500 g/ha, listed under Postemergence (flood test species), scale 0 to 10
[21] = Postemergence, Rate 125 g/ha, scale of 0 to 10 where 0 is no effect and 10 is complete control
[22] = Preemergence, Rate 125 g/ha, 0 is no effect, 10 is complete control
[23] = Preemergence, Rate 250 g/ha, scale 0 to 10, 0 is no effect, 10 is complete control
[24] = Preemergence, Rate 500 g/ha, scale 0 to 10 (0 no effect, 10 complete control)
[25] = Rate 250 g/ha, Postemergence, scale 0 to 10, 0 is no effect, 10 is complete control
[26] = Rate 1000 g/ha, Preemergence, scale 0 to 10 (0 no effect, 10 complete control)
[27] = Rate 500 g/ha, Postemergence, scale 0 to 10

Structure (SMILES): Cc1ccccc1-n1c(=O)on(C(=O)N(c2c(F)cccc2F)C(C)C)c1=O [Compound 176]
- Rice plant response rating [1, 17]: 0
- Rice plant response rating [1, 18]: 0
- Plant response rating, Rice [1, 19]: 0
- Rice plant response rating [1, 20]: 0
- B. signalgrass plant response rating [2, 21]: 0
- B. signalgrass plant response rating [2, 18]: 2
- B. signalgrass plant response rating (0 to 10 scale) [2, 22]: 0
- B. signalgrass plant response rating [2, 23]: 0
- B. signalgrass plant response rating [2, 24]: 0
- Plant response rating, B. signalgrass [2, 25]: 0
- B. signalgrass plant response rating ([2]; Rate 500 g/ha, Postemergence, scale 0 to 10, 0 no effect, 10 complete control): 0
- Plant response rating, B. signalgrass [2, 26]: 3
- Wild oats plant response rating [3, 18]: 4
- Wild oats plant response rating (0 to 10 scale) [3, 22]: 0
- Wild oats plant response rating [3, 23]: 3
- Wild oats plant response rating [3, 24]: 5
- Plant response rating, Wild oats [3, 25]: 0
- Wild oats plant response rating [3, 27]: 0
- Plant response rating, Wild oats [3, 26]: 5
- Morningglory plant response rating [4, 21]: 2
- Morningglory plant response rating [4, 18]: 7
- Morningglory plant response rating (0 to 10 scale) [4, 22]: 0
- Morningglory plant response rating [4, 23]: 0
- Morningglory plant response rating [4, 24]: 0
- Plant response rating, Morningglory [4, 25]: 2
- Morningglory plant response rating [4, 27]: 3
- Plant response rating, Morningglory [4, 26]: 0
- Nutsedge plant response rating [5, 21]: 0
- Nutsedge plant response rating (0 to 10 scale) [5, 22]: 0
- Nutsedge plant response rating [5, 23]: 0
- Nutsedge plant response rating [5, 24]: 0
- Plant response rating, Nutsedge [5, 25]: 0
- Nutsedge plant response rating [5, 27]: 0
- Plant response rating, Nutsedge [5, 26]: 10
- Crabgrass plant response rating [6, 21]: 0
- Crabgrass plant response rating [6, 18]: 9
- Crabgrass plant response rating (0 to 10 scale) [6, 22]: 8
- Crabgrass plant response rating [6, 23]: 9
- Crabgrass plant response rating [6, 24]: 10
- Plant response rating, Crabgrass [6, 25]: 3
- Crabgrass plant response rating [6, 27]: 6
- Plant response rating, Crabgrass [6, 26]: 10
- Giant foxtail plant response rating [7, 21]: 0
- Giant foxtail plant response rating [7, 18]: 7
- Giant foxtail plant response rating (0 to 10 scale) [7, 22]: 6
- Giant foxtail plant response rating [7, 23]: 10
- Giant foxtail plant response rating [7, 24]: 10
- Plant response rating, Giant foxtail [7, 25]: 0
- Giant foxtail plant response rating [7, 27]: 6
- Plant response rating, Giant foxtail [7, 26]: 10
- Cocklebur plant response rating [8, 21]: 2
- Cocklebur plant response rating [8, 18]: 6
- Cocklebur plant response rating (0 to 10 scale) [8, 22]: 0
- Cocklebur plant response rating [8, 23]: 0
- Cocklebur plant response rating [8, 24]: 0
- Plant response rating, Cocklebur [8, 25]: 2
- Cocklebur plant response rating [8, 27]: 3
- Plant response rating, Cocklebur [8, 26]: 0
- Corn plant response rating [9, 21]: 0
- Corn plant response rating [9, 18]: 0
- Corn plant response rating (0 to 10 scale) [9, 22]: 0
- Corn plant response rating [9, 23]: 0
- Corn plant response rating [9, 24]: 0
- Plant response rating, Corn [9, 25]: 0
- Corn plant response rating [9, 27]: 0
- Plant response rating, Corn [9, 26]: 2
- Rape plant response rating [10, 21]: 0
- Rape plant response rating [10, 18]: 0
- Rape plant response rating (0 to 10 scale) [10, 22]: 0
- Rape plant response rating [10, 23]: 0
- Rape plant response rating [10, 24]: 0
- Plant response rating, Rape [10, 25]: 0
- Rape plant response rating [10, 27]: 0
- Plant response rating, Rape [10, 26]: 3
- Ducksalad plant response rating [11, 17]: 0
- Ducksalad plant response rating [11, 18]: 0
- Plant response rating, Ducksalad [11, 19]: 0
- Ducksalad plant response rating [11, 20]: 0
- Soybean plant response rating [12, 21]: 2
- Soybean plant response rating [12, 18]: 4
- Soybean plant response rating (0 to 10 scale) [12, 22]: 0
- Soybean plant response rating [12, 23]: 0
- Soybean plant response rating [12, 24]: 0
- Plant response rating, Soybean [12, 25]: 2
- Soybean plant response rating [12, 27]: 4
- Plant response rating, Soybean [12, 26]: 2
- Barnyardgrass plant response rating [13, 17]: 0
- Barnyardgrass plant response rating [13, 18]: 0
- Plant response rating, Barnyardgrass [13, 19]: 0
- Barnyardgrass plant response rating [13, 20]: 0
- Sugarbeets plant response rating [14, 21]: 0
- Sugarbeets plant response rating [14, 18]: 4
- Sugarbeets plant response rating (0 to 10 scale) [14, 22]: 0
- Sugarbeets plant response rating [14, 23]: 0
- Sugarbeets plant response rating [14, 24]: 2
- Plant response rating, Sugarbeets [14, 25]: 0
- Sugarbeets plant response rating [14, 27]: 0
- Plant response rating, Sugarbeets [14, 26]: 6
- Redroot pigweed plant response rating [15, 21]: 0
- Redroot pigweed plant response rating [15, 18]: 1
- Redroot pigweed plant response rating (0 to 10 scale) [15, 22]: 0
- Redroot pigweed plant response rating [15, 23]: 0
- Redroot pigweed plant response rating [15, 24]: 0
- Plant response rating, Redroot pigweed [15, 25]: 0
- Redroot pigweed plant response rating [15, 27]: 0
- Plant response rating, Redroot pigweed [15, 26]: 0
- S. Flatsedge plant response rating [16, 17]: 0
- S. Flatsedge plant response rating [16, 18]: 0
- Plant response rating, S. Flatsedge [16, 19]: 0
- S. Flatsedge plant response rating [16, 20]: 0

— patent publication US6737383B1, “Herbicidal oxadiazolidines” (priority 1999, dated 2004)
